Laboratory results reported in publication PMC12493201, “A biosynthetic pathway for ornithine lipid formation dependent on a GH3 (Gretchen Hagen 3)-like enzyme in planctomycetes” (The Journal of Biological Chemistry, 2025).

Target: T1, OlsH (Sinac_1599) (Singulisphaera acidiphila, UniProt L0DAW6)
T1 sequence (L0DAW6 1-526): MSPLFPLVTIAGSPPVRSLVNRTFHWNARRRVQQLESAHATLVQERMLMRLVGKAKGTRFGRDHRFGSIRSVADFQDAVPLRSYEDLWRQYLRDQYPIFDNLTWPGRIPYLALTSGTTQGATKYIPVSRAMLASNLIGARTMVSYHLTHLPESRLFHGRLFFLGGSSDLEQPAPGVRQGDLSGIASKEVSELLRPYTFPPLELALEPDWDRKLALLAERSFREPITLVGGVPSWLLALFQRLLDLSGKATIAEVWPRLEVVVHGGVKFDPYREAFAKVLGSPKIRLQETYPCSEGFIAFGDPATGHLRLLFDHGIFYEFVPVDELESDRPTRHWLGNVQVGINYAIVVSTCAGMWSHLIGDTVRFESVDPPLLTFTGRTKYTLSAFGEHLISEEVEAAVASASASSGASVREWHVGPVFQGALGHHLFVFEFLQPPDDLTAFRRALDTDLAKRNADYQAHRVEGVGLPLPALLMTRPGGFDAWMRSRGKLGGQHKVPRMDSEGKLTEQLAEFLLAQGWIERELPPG
Assay: […] N-acyl ornithine formation, TLC / PhosphorImager; empty-vector extract inactive
Type: biochemical
Conditions: ATP, Mg2+, Tris pH 7.9, 30 °C, cell-free E. coli extract

Compound	14C N-acyl ornithine formation, TLC / PhosphorImager; empty-vector extract inact (palmitic acid, labelled compound)	14C N-acyl ornithine formation, TLC / PhosphorImager; empty-vector extract inact ([14C]-ornithine, fatty acid as Triton X-100 micelles)
NCCC[C@H](N)C(=O)O [ornithine]	Adding all compounds resulted in a solid acyl-ornithine signal	–
CCCCCCCCCCCCCCCC(=O)O [palmitic acid]	–	Strong acyl ornithine signals were detected with the three non-hydroxylated fatty acids
